Results on 25 compounds are retold here after ChEMBL document CHEMBL3608227, “Synthesis and anti-tubercular activity of 2-nitroimidazooxazines with modification at the C-7 position as PA-824 analogs” (Bioorg Med Chem Lett, 2015).

pIC50: −log10 of the molar value. Values after ≈ are worked out from the molar mass of the structure shown.

One test relates to Mycobacterium tuberculosis. Nature of the test: Anti-tubercular activity against Mycobacterium tuberculosis H37Rv incubated at 37 degC by microscopy. It is filed as functional.
`O=[N+]([O-])c1cn2c(n1)O[C@@H](CCOCc1ccc(OC(F)(F)F)cc1)CC2` showed an MIC99 of 0.078 µM (≈ 0.0302 µg/mL).
Compound `O=[N+]([O-])c1cn2c(n1)O[C@H](CCOCc1ccc(OC(F)(F)F)cc1)CC2` registered an MIC99 of 0.39 µM (≈ 0.151 µg/mL).
Still for that read-out and setting: for `CC(C)(C)c1ccc(COCC[C@H]2CCn3cc([N+](=O)[O-])nc3O2)cc1` the value was 0.39 µM (≈ 0.14 µg/mL).
`O=[N+]([O-])c1cn2c(n1)O[C@@H](CCOCc1ccc(Br)cc1)CC2` came in with an MIC99 of 0.39 µM (≈ 0.149 µg/mL).
As to `O=[N+]([O-])c1cn2c(n1)O[C@@H](CCOCc1ccc(Cl)cc1)CC2`, the MIC99 was found to be 0.39 µM (≈ 0.132 µg/mL).
For `O=[N+]([O-])c1cn2c(n1)O[C@@H](CCOCc1ccc(C(F)(F)F)cc1)CC2`, the MIC99 turned out to be 0.195 µM (≈ 0.0724 µg/mL).
The compound `O=[N+]([O-])c1cn2c(n1)O[C@@H](CCOCc1ccc(-c3ccccc3)cc1)CC2` gave an MIC99 of 0.195 µM (≈ 0.074 µg/mL).
In the case of `O=[N+]([O-])c1cn2c(n1)O[C@@H](CCOc1ccc(OC(F)(F)F)cc1)CC2`, the MIC99 is 0.098 µM (≈ 0.0366 µg/mL).
Compound `O=[N+]([O-])c1cn2c(n1)O[C@@H](CCOc1ccccc1)CC2` gave an MIC99 of 3.12 µM (≈ 0.904 µg/mL).
Regarding `O=[N+]([O-])c1cn2c(n1)O[C@@H](CCOc1ccc(Cl)cc1)CC2`, the MIC99 was 0.39 µM (≈ 0.126 µg/mL).
In turn, `O=[N+]([O-])c1cn2c(n1)O[C@@H](CCOc1ccc(C(F)(F)F)cc1)CC2` gave an MIC99 of 0.195 µM (≈ 0.0697 µg/mL).
`O=[N+]([O-])c1cn2c(n1)O[C@@H](CCOc1ccc(OCc3ccccc3)cc1)CC2` had an MIC99 of 0.078 µM (≈ 0.0308 µg/mL).
Consider `O=[N+]([O-])c1cn2c(n1)O[C@H](CCOc1ccc(OCc3ccccc3)cc1)CC2`, for which the MIC99 came out at 0.078 µM (≈ 0.0308 µg/mL).
In the case of `O=[N+]([O-])c1cn2c(n1)O[C@@H](CCOc1ccc(-c3ccccc3)cc1)CC2`, the MIC99 came to 0.078 µM (≈ 0.0285 µg/mL).
The same measure, in the same setting: for `O=[N+]([O-])c1cn2c(n1)O[C@@H](CCOc1ccc(-c3ccc(F)cc3)cc1)CC2` the value was 0.05 µM (≈ 0.0192 µg/mL); for `O=C(OCC[C@H]1CCn2cc([N+](=O)[O-])nc2O1)OCc1ccc(OC(F)(F)F)cc1`, 0.078 µM (≈ 0.0336 µg/mL); for `O=C(OCC[C@@H]1CCn2cc([N+](=O)[O-])nc2O1)OCc1ccc(OC(F)(F)F)cc1`, 1.56 µM (≈ 0.673 µg/mL).
`O=C(OCC[C@H]1CCn2cc([N+](=O)[O-])nc2O1)OCc1cccc(OC(F)(F)F)c1`: the MIC99 is 0.78 µM (≈ 0.336 µg/mL).
The same measure, in the same setting: for `O=C(OCC[C@H]1CCn2cc([N+](=O)[O-])nc2O1)OCc1ccccc1OC(F)(F)F` the value was 0.39 µM (≈ 0.168 µg/mL); for `O=C(OCC[C@H]1CCn2cc([N+](=O)[O-])nc2O1)OCc1ccc(Cl)cc1`, 0.195 µM (≈ 0.0744 µg/mL); for `O=C(OCC[C@H]1CCn2cc([N+](=O)[O-])nc2O1)OCc1ccc(C(F)(F)F)cc1`, 0.39 µM (≈ 0.162 µg/mL).
As for `O=C(Nc1ccc(Cl)cc1)OCC[C@H]1CCn2cc([N+](=O)[O-])nc2O1`, the MIC99 is 0.195 µM (≈ 0.0715 µg/mL).
`O=C(Nc1ccc(-c2ccc(OC(F)(F)F)cc2)cc1)OCC[C@H]1CCn2cc([N+](=O)[O-])nc2O1` had an MIC99 of 0.195 µM (≈ 0.096 µg/mL).
On the same count and under the same terms, to `O=[N+]([O-])c1cn2c(n1)OC[C@@H](OCc1ccc(OC(F)(F)F)cc1)C2` [PRETOMANID] belongs 0.39 µM (≈ 0.14 µg/mL).

The next test has as its system Mycobacterium tuberculosis. Nature of the test: Potency index, ratio of IC50 for PA-824 to IC50 for test compound against Mycobacterium tuberculosis. It is filed as functional.
In the case of `O=[N+]([O-])c1cn2c(n1)OC[C@H](OCc1ccc(OC(F)(F)F)cc1)C2`, the “Ratio IC50” value came to 6.

For another test, the system named is Mycobacterium tuberculosis. As to the kind of experiment: Anti-tubercular activity against Mycobacterium tuberculosis. It is filed as functional, organism-based.
`O=[N+]([O-])c1cn2c(n1)OC[C@H](OCc1ccc(OC(F)(F)F)cc1)C2` showed a negative logarithm of the IC50 (pIC50) of 6.80.
With `O=[N+]([O-])c1cn2c(n1)OC[C@@H](OCc1ccc(OC(F)(F)F)cc1)C2` [PRETOMANID], the pIC50 was 6.05.

Another test deals with Mycobacterium tuberculosis. Nature of the test: Potency index, ratio of IC50 for PA-824 to IC50 for test compound against Mycobacterium tuberculosis H37Rv. It is filed as functional.
As to `O=[N+]([O-])c1cn2c(n1)O[C@@H](CCOCc1ccc(OC(F)(F)F)cc1)CC2`, the “Ratio IC50” value is recorded as 5.
On the same count and under the same terms, to `O=[N+]([O-])c1cn2c(n1)O[C@@H](CCOCc1ccc(-c3ccccc3)cc1)CC2` belongs 2.
